Measurements reported in a compilation of properties of binary mixtures (doi:10.1016/j.molliq.2020.112816).

Experiment: xn = mol fraction of the nth substance listed
Details: 101 kPa

NC=O + CCCC[n+]1ccn(C)c1.F[B-](F)(F)F
Details | speed of sound [m/s] | viscosity [mPa·s]
293.15 K, x2 = 0.0675 | 1614.2 | 4.01
293.15 K, x2 = 0.135 | 1613.4 | 4.81
293.15 K, x2 = 0.2054 | 1611.9 | 7
293.15 K, x2 = 0.4499 | 1602.9 | 24.97
293.15 K, x2 = 0.6639 | 1593.2 | 54.2
293.15 K, x2 = 0.7588 | 1588.7 | 71.4
293.15 K, x2 = 0.8107 | 1586.2 | 81.8
293.15 K, x2 = 0.8626 | 1583.7 | 93.3
293.15 K, x2 = 0.9313 | 1580.3 | 109.6
298.15 K, x2 = 0 | 1602.4 | 3.27
298.15 K, x2 = 0.0675 | 1603 | 3.73
298.15 K, x2 = 0.135 | 1602.3 | 4.65
298.15 K, x2 = 0.2054 | 1600.8 | 6.6
298.15 K, x2 = 0.3629 | 1595.4 | 14.43
298.15 K, x2 = 0.4499 | 1591.8 | 20.95
298.15 K, x2 = 0.5095 | 1589.3 | 26.31
298.15 K, x2 = 0.569 | 1586.6 | 32.4
298.15 K, x2 = 0.6639 | 1582.2 | 43.6
298.15 K, x2 = 0.8626 | 1572.7 | 73.4
298.15 K, x2 = 0.9313 | 1569.3 | 85.6
303.15 K, x2 = 0 | 1590.5 | 2.918
303.15 K, x2 = 0.0675 | 1591.4 | 3.28
303.15 K, x2 = 0.135 | 1590.9 | 4.23
303.15 K, x2 = 0.2054 | 1589.4 | 5.84
303.15 K, x2 = 0.2758 | 1587.2 | 8.24
303.15 K, x2 = 0.3629 | 1584 | 12.35
303.15 K, x2 = 0.5095 | 1578 | 21.66
303.15 K, x2 = 0.569 | 1575.3 | 26.36
303.15 K, x2 = 0.6639 | 1570.9 | 35
303.15 K, x2 = 0.7588 | 1566.5 | 44.9
308.15 K, x2 = 0 | 1578.3 | 2.607
308.15 K, x2 = 0.0675 | 1579.4 | 3.049
308.15 K, x2 = 0.135 | 1579 | 3.99
308.15 K, x2 = 0.2054 | 1577.5 | 5.48
308.15 K, x2 = 0.3629 | 1572.2 | 10.72
308.15 K, x2 = 0.5095 | 1566.2 | 17.95
308.15 K, x2 = 0.569 | 1563.6 | 21.5
308.15 K, x2 = 0.6639 | 1559.3 | 27.92
308.15 K, x2 = 0.7588 | 1554.8 | 35.3
308.15 K, x2 = 0.8107 | 1552.3 | 39.7
308.15 K, x2 = 0.8626 | 1549.8 | 44.5
313.15 K, x2 = 0 | 1565.9 | 2.328
313.15 K, x2 = 0.0675 | 1567.3 | 2.599
313.15 K, x2 = 0.135 | 1567 | 3.4
313.15 K, x2 = 0.2758 | 1563.3 | 6.21
313.15 K, x2 = 0.5095 | 1554.2 | 14.39
313.15 K, x2 = 0.569 | 1551.6 | 17.16
313.15 K, x2 = 0.6639 | 1547.3 | 22.22
313.15 K, x2 = 0.7588 | 1542.9 | 28.02
313.15 K, x2 = 0.8107 | 1540.4 | 31.6
313.15 K, x2 = 0.8626 | 1537.8 | 35.2
313.15 K, x2 = 0.9313 | 1534.3 | 40.4
318.15 K, x2 = 0 | 1553.1 | 2.096
318.15 K, x2 = 0.0675 | 1554.9 | 2.4
318.15 K, x2 = 0.135 | 1554.6 | 2.982
318.15 K, x2 = 0.2054 | 1553 | 3.88
318.15 K, x2 = 0.3629 | 1547.7 | 7.11
318.15 K, x2 = 0.4499 | 1544.2 | 9.72
318.15 K, x2 = 0.5095 | 1541.8 | 11.78
318.15 K, x2 = 0.7588 | 1530.5 | 23.24
318.15 K, x2 = 0.8107 | 1528 | 26.2
318.15 K, x2 = 0.9313 | 1521.9 | 33.8

CCCC[n+]1ccn(C)c1.F[B-](F)(F)F + NC=O
x1 = 1
Details | speed of sound [m/s] | viscosity [mPa·s]
293.15 K | 1576.8 | 127.6
298.15 K | 1565.7 | 98.9
303.15 K | 1554.4 | 76.3
313.15 K | 1530.5 | 46.2
